Experimental findings from US7317038B2, “Nerve regeneration promoters containing semaphorin inhibitor as the active ingredient” (Dainippon Sumitomo Pharma Co., Ltd., priority 2000, dated 2008) are described below.

Entries after “also recorded” stand apart in the source; their conditions may differ.

For series [1], the system named is COS7 cells. As to the kind of experiment: Effect on cell proliferation (MTT). The series is classed as cell-based. To be noted: Chlorocebus aethiops, COS-7, 48 h, two days, read-out: IC50, inhibitory rate for cell proliferation. As to the method:
COS7 cells were seeded onto a 96-well plate (medium 100 μl/well) at 10000 cells per well. At the same time, SPF-3059-1 of various concentrations was added and the cells were cultivated for two days in the presence of 5% CO2 at 37° C. Each well was then added with 10 μl of MTT solution at 5 mg/ml and cultured for another one hour. Subsequently, the culture supernatant was removed and formazan (an MTT derivative produced in viable cells) accumulated in the cells was dissolved by the addition of 50 μl DMSO and then the absorbance at 570 nm was measured to determine the proliferation of COS7 cells. […] The longitudinal and lateral axes in the figure show cell proliferation and the SPF-3059-1 concentration, respectively. Besides, the standard deviation (n=4) was added to each column.
The same effect on cell proliferation as in Example 9 was examined for the compounds, SPF-3059-1, SPF-3059-2 and SPF-3059-5. The wells with these compounds were served as samples, the wells with PBS were served as control, and the wells for which the experiment was carried out without adding the cells was served as blank. IC50 (μg/ml), the inhibitory rate for cell proliferation, was determined, which is calculated by the equation shown below. The inhibitory rate for cell proliferation (%)=(1−(absorbance of a sample well−absorbance of the blank well)/(absorbance of the control well−absorbance of the blank well))×100

Series [2] has as its target T1, mouse semaphorin 3A (Sema3A) (Mus musculus, UniProt O08665).
T1 sequence (O08665 21-772): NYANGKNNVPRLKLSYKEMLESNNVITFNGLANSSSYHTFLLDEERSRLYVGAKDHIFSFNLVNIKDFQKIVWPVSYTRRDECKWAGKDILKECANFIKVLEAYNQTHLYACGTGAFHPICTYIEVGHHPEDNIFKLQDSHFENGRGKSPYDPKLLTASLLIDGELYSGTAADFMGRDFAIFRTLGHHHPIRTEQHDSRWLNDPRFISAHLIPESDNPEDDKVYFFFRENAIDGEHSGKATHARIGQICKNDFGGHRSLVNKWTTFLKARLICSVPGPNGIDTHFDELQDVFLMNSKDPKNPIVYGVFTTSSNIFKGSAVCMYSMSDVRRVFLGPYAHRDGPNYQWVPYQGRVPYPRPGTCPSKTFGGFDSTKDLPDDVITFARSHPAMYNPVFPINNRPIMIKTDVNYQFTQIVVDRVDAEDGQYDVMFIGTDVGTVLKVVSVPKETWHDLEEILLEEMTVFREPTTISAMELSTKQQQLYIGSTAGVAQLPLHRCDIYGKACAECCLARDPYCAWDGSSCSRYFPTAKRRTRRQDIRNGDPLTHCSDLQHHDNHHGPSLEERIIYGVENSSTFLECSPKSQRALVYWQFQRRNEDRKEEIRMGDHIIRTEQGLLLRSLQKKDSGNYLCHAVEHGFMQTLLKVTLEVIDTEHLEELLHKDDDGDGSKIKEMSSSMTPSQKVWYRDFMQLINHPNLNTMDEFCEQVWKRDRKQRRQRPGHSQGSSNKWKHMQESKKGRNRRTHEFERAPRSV
As to the kind of experiment: Suppression of growth cone collapse activity of Sema3A (chick embryo dorsal root ganglions). It counts as cell-based. To be noted: for IC50: E7 chick embryo dorsal root ganglions, 2 units/ml Sema3A added 1 hour after compound, concentration where collapse rate = (A+B)/2, read-out: IC50 of inhibition of the growth cone collapse activity of Sema3A (converted). As to the method:
A 96-well plate (Sumitomo Bakelite Co., ltd. ) pre-coated with polylysine was further coated with laminine (20 μg/ml of laminine, for 1 hour at room temperature). Each well was added with 100 μl of medium (F12 medium containing 10% bovine fetal serum, 20 ng/ml of NGF, 100 units/ml of penicillin and 100 μg/ml of streptomycin) which media were then inoculated with dorsal root nerve ganglions excised from E7 (Embryonic day 7) chick embryo and were cultured for 16 to 20 hours under 5% CO2 and at 37° C. Subsequently, the object compounds were added to media at various concentrations and 2 units/ml of mouse semaphorin 3A (Sema3A) was added after cultivating for 1 hour. The cultures were further incubated for another 1 hour. Glutaraldehyde was quickly added therein after said 1 hour to make the final concentration 1%. The cultures were then left for 15 minutes at room temperature so that the tissue sections were fixed, and collapse rates of the growth cones were microscopically observed. A well with no addition of Sema3A was made the control.
The longitudinal and lateral axes in the figures represent the collapse rate of growth cones and the concentration of compounds, respectively. ●▪▴ show the results when Sema3A was added after the addition of the compounds and ◯[…]Δ show those when Sema3A was not added. Further, IC50 (μg/ml) of the inhibitors were determined by the method comprising: calculating the collapse rate of growth cone (A) % of the negative controls (neither compounds nor Sema3a was added); subsequently calculate the collapse rate of growth cone (B) % of the positive controls (compounds were not added but Sema3a was added); and the concentration was chosen for each compound from the chart where the collapse rate of growth cone met (A+B)/2(%), which was made IC50 level. The followings are the results.

Series [3] deals with T2, Sema3A (Mus musculus, UniProt O08665).
T2 construct: expressed in transfected cells; host or cells: COS7
T2 sequence (O08665 21-772): T1 sequence (O08665 21-772)
As to the kind of experiment: Collagen gel co-culture: suppression of neurite outgrowth inhibitory action of Sema3A. Also noted: key to suppression of neurite outgrowth inhibitory activity of Sema3A, score / inhibition of neurite outgrowth-inhibitory action of Sema3A, score: neurites outgrew in a complete concentric circular shape just like for the control groups where Sema3A-non-expressing COS7 cells were used, it was scored +++ (a strong inhibitory effect for Sema3A); outgrowth was found almost in a concentric circular shape accompanied with a little suppression of the outgrowth toward the direction of Sema3A-expressing COS cells, it was scored ++; outgrowth toward the direction of Sema3A-expressing COS cells is fairly suppressed to present a crescent shape, it was scored +; outgrowth toward the direction of Sema3A-expressing COS cells was not found at all (no inhibitory effect for Sema3A), it was scored −. To be noted: for suppression of neurite outgrowth inhibitory activity of Sema3A, score: Example 5. It counts as cell-based. As for the experimental part:
Whether the object compounds (SPF-3059-1, M162, A721) have persistent inhibitory action to Sema3A was analyzed by the collagen gel co-culture method (Neuroprotocols 4, 116, 1994) using Sema3A-expressing COS7 cell clumps and 7- or 8-day-old chick embryo dorsal root ganglions. The Sema3A-expressing COS7 cell clumps were generated as follows. 1 μg of Sema3A-expression plasmid was introduced into COS7 cells (100000 cells/35 mm culture plate), which were cultured overnight, with the FuGENE6 transfection reagent (Roche). 2.5 hours after the starting of the transfection, the COS7 cells were collected by trypsinization and centrifugation, and re-suspended in a medium of 200 μl. 20 μl of the cell suspension was placed on the lid of the culture plate (inside) and the lid was turned over, and then the suspension was cultivated for 20 hours (hanging drop culture) (Cell 78, 425, 1994). When the culture was over, aggregated COS7 cells (clump) were collected and trimmed to a diameter of 0.5 mm. The Sema3A-expressing COS7 cell clump and the above-mentioned dorsal root ganglions were placed in parallel at a distance of 0.5 to 1 mm in a 0.2% collagen gel which was then cultivated in a medium containing the aforementioned compounds at various concentrations for 2 days at 37° C. under 5% CO2. Glutaraldehyde was quickly added therein to make the final concentration 1%. The cultures were then left for 1 hour at room temperature so that the tissues were fixed, and the neurite outgrowth was microscopically observed. The results are found in FIG. 4.
When a medium not containing a subject compound was used, neurites were unable to grow towards the COS7 cell clump with the high concentration of Sema3A and grew only to the opposite direction.
In a similar way as in Example 4, suppression of the neurite outgrowth inhibitory activity was analyzed for the compounds, SPF-3059-1, SPF-3059-2 and SPF-3059-5. When the neurites outgrew in a complete concentric circular shape just like for the control groups where Sema3A-non-expressing COS7 cells were used, it was scored +++ (a strong inhibitory effect for Sema3A). When the outgrowth was found almost in a concentric circular shape accompanied with a little suppression of the outgrowth toward the direction of Sema3A-expressing COS cells, it was scored ++. […] When the outgrowth toward the direction of Sema3A-expressing COS cells was not found at all (no inhibitory effect for Sema3A), it was scored −.

Series [4] is described as follows: Solubility. It counts as physicochemical.

Take `CC(=O)c1cc2c(=O)c3cc(O)c(O)cc3oc2c(C(C)=O)c1-c1coc2cc(O)c(O)c(C(=O)O)c2c1=O` [SPF-3059-2]: the IC50 in series [1] was above 100 µg/mL. For the same compound, the “inhibition of growth cone collapse activity of Sema3A (in words)” value in series [2] (chick embryo dorsal root ganglions) is “inhibit the growth cone collapse activities of Sema3A in a concentration-dependent manner; also recorded: potently inhibit semaphorin”. In addition, the “suppression of neurite outgrowth inhibitory activity of Sema3A, score” value in series [3] (0.5 μg/ml compound) was “+”; in series [3] (1.0 μg/ml compound), “++”; in series [3] (2.0 μg/ml compound), “+++”. For the same compound, the “inhibition of neurite outgrowth-inhibitory action of Sema3A, score” value in series [3] (2 μg/ml compound, Example 16) is reported as “+++”. Moreover, the “persistent inhibitory action to Sema3A (neurite outgrowth toward Sema3A-expressing COS7 cell clump)” value in series [3] (collagen gel co-culture, 2 days) is recorded as “persistently inhibited the action of Sema3A”.
On to `CC(=O)c1c(C)c(C(=O)C2(O)COc3cc(O)c(O)cc3C2=O)cc2c(=O)c3c(C(=O)O)c(O)c(O)cc3oc12` (centres unmarked) [SPF-3059-34], for which the Solubility entry is listed as “Soluble” in series [4] (methanol, DMSO) and “Insoluble” in series [4] (water, hexane). Besides, in series [2], the IC50 was 182 nM.
Regarding `CC(=O)c1cc2c(=O)c3c(C(=O)O)c(O)c(O)cc3oc2c(C(C)=O)c1-c1coc2cc(O)c(O)cc2c1=O` [SPF-3059-24], the IC50 was above 100 µg/mL in series [1] and 188 nM in series [2]. For the same compound, the Solubility result was “Soluble” in series [4] (methanol, DMSO) and “Insoluble” in series [4] (water, hexane).
For the compound `CC(=O)c1cc(-c2c(C(C)=O)cc3c(=O)c4cc(O)c(O)cc4oc3c2C(C)=O)cc(C(=O)c2cc(O)c(O)cc2O)c1O` [SPF-3059-36], the Solubility result in series [4] (methanol, DMSO) is reported as “Soluble”; in series [4] (water, hexane), “Insoluble”. For the same compound, in series [2], the IC50 is 6680 nM.
Consider `COCc1c(-c2cc3c(=O)c4cc(O)c(O)cc4oc3c(C(C)=O)c2C)oc2cc(O)c(O)c(C(=O)O)c2c1=O` [SPF-3059-29], for which the IC50 in series [1] was above 100 µg/mL; in series [2], 182 nM. The Solubility entry is “Soluble” in series [4] (methanol, DMSO) and “Insoluble” in series [4] (water, hexane).
Turning to `CC(=O)c1c(C)c(-c2cc(=O)c3c(C(=O)O)cc(O)cc3o2)cc2c(=O)c3c(C(=O)O)c(O)c(O)cc3oc12` [SPF-3059-28], the Solubility entry in series [4] (methanol, DMSO) is on record as “Soluble”; in series [4] (water, hexane) it was “Insoluble”. Further, the IC50 in series [2] is 3760 nM.
On the same counts, the results for `COC(=O)c1cc(O)cc2oc(-c3cc4c(=O)c5c(C(=O)O)c(O)c(O)cc5oc4c(C(C)=O)c3C)cc(=O)c12` [SPF-3059-35] are “Soluble”, “Insoluble” and 3660 nM.
Turning to `CC(=O)c1cc2c(=O)c3c(C(=O)O)cc(O)cc3oc2c(C(C)=O)c1-c1coc2cc(O)c(O)cc2c1=O` [SPF-3059-25], the Solubility entry in series [4] (methanol, DMSO) was “Soluble”; in series [4] (water, hexane), “Insoluble”. Also, the IC50 in series [2] was 7750 nM.
Regarding `CC(=O)c1c(C)c(C(=O)C2COc3cc(O)c(O)cc3C2=O)cc2c(=O)c3c(C(=O)O)c(O)c(O)cc3oc12` (centres unmarked) [SPF-3059-9], the figures for the IC50 in series [1] and in series [2] were above 100 µg/mL and 187 nM, respectively. In addition, the Solubility result in series [4] (methanol, DMSO) is on record as “Soluble”; in series [4] (water, hexane), “Insoluble”.
For the compound `CC(=O)c1c(C)c(-c2cc(=O)c3c(C(=O)O)c(O)c(O)cc3o2)cc2c(=O)c3c(C(=O)O)c(O)c(O)cc3oc12` [SPF-3059-39], the Solubility result in series [4] (methanol, DMSO) was “Soluble”; in series [4] (water, hexane), “Insoluble”. For the same compound, the IC50 in series [2] was 182 nM.
In the same order, the values of `CC(=O)c1cc(-c2c(C(C)=O)cc3c(=O)c4c(C(=O)O)c(O)c(O)cc4oc3c2C(C)=O)cc(C(=O)c2cc(O)c(O)cc2O)c1O` [SPF-3059-27] are “Soluble”, “Insoluble” and 778 nM.
Regarding `CC(=O)c1c(C)c(-c2oc3cc(O)c(O)c(C(=O)O)c3c(=O)c2Cc2c(C)oc3c(c2=O)COc2cc(O)c(O)cc2-3)cc2c(=O)c3c(C(=O)O)c(O)c(O)cc3oc12` [SPF-3059-37], the Solubility result in series [4] (methanol, DMSO) is “Soluble”; in series [4] (water, hexane), “Insoluble”. In addition, the IC50 in series [2] is below 124 nM.
Regarding `CC(=O)c1c(C)c(C(=O)C2COc3cc(O)c(O)cc3C2=O)cc2c(=O)c3cc(O)c(O)cc3oc12` (centres unmarked) [SPF-3059-30], the figures for the IC50 in series [1] and in series [2] were above 100 µg/mL and 408 nM, respectively. Moreover, the Solubility result is listed as “Soluble” in series [4] (methanol, DMSO) and “Insoluble” in series [4] (water, hexane).
Take `CC(=O)c1cc2c(=O)c3cc(O)c(O)cc3oc2c(C(C)=O)c1-c1coc2cc(O)c(O)cc2c1=O` [SPF-3059-26]: the Solubility result in series [4] (methanol, DMSO) was “Soluble”; in series [4] (water, hexane) it was “Insoluble”. Moreover, the IC50 in series [2] was 409 nM.
